Test results published in article PMC11864979, “First-in-class ultralong-target-residence-time p38α inhibitors as a mitosis-targeted therapy for colorectal cancer” (Nature Cancer, 2025).
Where “and” joins values, the source holds several entries; their conditions need not be identical. Identical values can stand only once. Like-named read-outs stand apart in the source and are kept apart here.

Tests used:
HT-29 = experiment: cell viability in human CRC cell line HT-29; format: cell-based; details: Homo sapiens, ED Fig. 9h, replicates, read-out: HT-29 Cell viability (%); for viability at 0.0137 µM: HT-29, 0.0137 µM; for viability at 0.0412 µM: HT-29, 0.0412 µM; for viability at 0.1235 µM: HT-29, 0.1235 µM; for viability at 0.3704 µM: HT-29, 0.3704 µM; for viability at 1.1111 µM: HT-29, 1.1111 µM; for viability at 3.3333 µM: HT-29, 3.3333 µM; for viability at 10 µM: HT-29, 10.0000 µM
Method: (§1) To generate KAP^2D cells, KAP organoids were isolated from Matrigel, fragmented by mechanical dissociation and plated without any extracellular matrix on common cell culture dishes. Phoenix-Eco packaging cells (CRL-3214), HCT-15 (CCL-225), HCT 116 (CCL-247), COLO 205 (CCL-222), LS 174T (CL-188), RKO (CRL-2577) and HT-29 (HTB-38) were obtained from the American Type Culture Collection. The cells were cultured at 37 °C and 7% CO2 with RPMI (KAP^2D cells) or DMEM (other cell lines), supplemented with 10% FBS and penicillin–streptomycin. KAP^2D cells were authenticated using PCR (Kras locus and Trp53 locus). Phoenix-Eco packaging cells and HCT-15, HCT 116, COLO 205, LS 174T, RKO and HT-29 cells were authenticated by the provider using short tandem repeat profiling. No commonly misidentified cell lines were used. Mycoplasma contamination was excluded by a PCR-based analysis.
(§2) For in vitro treatment studies, organoids were mechanically dissociated and digested using TrypLE supplemented with 100 µg ml^−1 DNaseI and 10.5 µM Y-27632 dihydrochloride (Invitrogen) at 37 °C. A total of 1,000–2,000 single cells were plated per well in white 96-well plates (Greiner) in culture medium containing 10% GFR Matrigel or Cultrex BME. The treatment with doxycycline (5 µg ml^−1), pharmacological inhibitors or corresponding volumes of DMSO was started 24 h after plating. Doxycycline was obtained from Sigma-Aldrich. […] Cell viability was measured by means of CellTiter-Glo 3D or CellTiter-Glo 2.0 reagent (Promega) according to the manufacturers’ instructions and the Infinite M Plex reader (Tecan, i-control version 3.9.1 software). Results were normalized to vehicle (DMSO) or to shNC. For cell-doubling assays, the cell number was quantified at the corresponding time points using Guava EasyCyte flow cytometer (Luminex, CytoSoft v5.2 software).

COLO 205 = experiment: cell viability in human CRC cell line COLO 205; format: cell-based; details: 4 d
Method: as §1, §2

PDO8 = experiment: cell viability in patient-derived CRC organoids PDO8; format: cell-based, human
Method: as §2

PDO14 = experiment: cell viability in patient-derived CRC organoids PDO14; format: cell-based, human
Method: as §2

HCT 116 = experiment: cell viability in human CRC cell line HCT 116; format: cell-based; details: 4 d
Method: as §1, §2

PDO11 = experiment: cell viability in patient-derived CRC organoids PDO11; format: cell-based, human
Method: as §2

SMILES: O=C(NCCN1CCOCC1)c1ccc2c(c1)C(=O)c1ccc(Nc3ccc(F)c(NC(=O)c4ccccc4)c3)cc1CC2 [Compound 1639]
- viability at 0.0137 µM (HT-29; Repetition): 102%
- viability at 0.0137 µM (HT-29; first experiment): 94.8%
- viability at 0.0412 µM (HT-29; Repetition): 105%
- viability at 0.0412 µM (HT-29; first experiment): 93.8%
- viability at 0.1235 µM (HT-29; Repetition): 104%
- viability at 0.1235 µM (HT-29; first experiment): 88.1%
- viability at 0.3704 µM (HT-29; Repetition): 95.8%
- viability at 0.3704 µM (HT-29; first experiment): 88.9%
- viability at 1.1111 µM (HT-29; Repetition): 88.5%
- viability at 1.1111 µM (HT-29; first experiment): 92.4%
- viability at 3.3333 µM (HT-29; Repetition): 52.9%
- viability at 3.3333 µM (HT-29; first experiment): 70.7%
- viability at 10 µM (HT-29; Repetition): 3.22%
- viability at 10 µM (HT-29; first experiment): 4.71%
- COLO 205 Cell viability (%) (COLO 205; 0.0137 µM): 96.89% and 92.36% and 102.13% and 110.53% and 105.25%
- COLO 205 Cell viability (%) (COLO 205; 0.0412 µM): 99.77% and 107.60% and 109.36% and 77.71% and 88.84% and 87.27%
- COLO 205 Cell viability (%) (COLO 205; 0.1235 µM): 93.71% and 107.24% and 99.74% and 85.52% and 87.44% and 87.93%
- COLO 205 Cell viability (%) (COLO 205; 0.3704 µM): 100.71% and 94.45% and 83.28% and 88.21% and 85.79%
- COLO 205 Cell viability (%) (COLO 205; 1.1111 µM): 89.26% and 96.25% and 98.03% and 68.45% and 75.66% and 76.80%
- viability at 0.0137 µM (COLO 205; Homo sapiens, COLO 205, 96 h, 0.0137 µM): 98.5%
- viability at 0.3704 µM (COLO 205; Homo sapiens, COLO 205, 96 h, 0.3704 µM): 92.5%
- viability at 0.5 µM (PDO8; Homo sapiens, 96 h, PDO8, 0.5 µM, 4 d): 82.7%
- Cell viability (%) (PDO8; PDO8, 0.5 µM, 4 d, 0.5 µM): 82.90% and 74.01%
- Cell viability (%) (PDO8; PDO8, 1 µM, 4 days, 1 µM): 84.53% and 69.94% and 45.12%
- viability at 0.5 µM (PDO14; Homo sapiens, 96 h, PDO14, 0.5 µM, 4 d, read-out: Cell viability (%)): 101%
- viability at 1 µM (PDO14; Homo sapiens, 96 h, PDO14, 1 µM, 4 days, read-out: Cell viability (%)): 105%
- Cell viability (%) (PDO14; PDO14, 0.5 µM, 4 d, 0.5 µM): 102.33% and 109.28%
- Cell viability (%) (PDO14; PDO14, 1 µM, 4 days, 1 µM): 95.42% and 93.44%
- HCT 116 Cell viability (%) (HCT 116; 0.0137 µM): 91.07% and 92.02% and 85.19% and 84.20% and 84.23%
- HCT 116 Cell viability (%) (HCT 116; 0.0412 µM): 81.63% and 80.34% and 77.04% and 76.76% and 74.10%
- HCT 116 Cell viability (%) (HCT 116; 0.1235 µM): 88.84% and 91.52% and 85.54% and 79.01% and 86.05%
- HCT 116 Cell viability (%) (HCT 116; 0.3704 µM): 94.73% and 98.85% and 85.83% and 87.08% and 84.20%
- HCT 116 Cell viability (%) (HCT 116; 1.1111 µM): 93.31% and 91.15% and 89.63% and 87.68% and 87.77%
- HCT 116 Cell viability (%) (HCT 116; 3.3333 µM): 77.27% and 77.51% and 74.83% and 76.92% and 78.08%
- HCT 116 Cell viability (%) (HCT 116; 10.0000 µM): 46.79% and 45.46% and 36.02% and 37.60% and 41.48%
- viability at 0.0137 µM (HCT 116; Homo sapiens, HCT-116, 96 h, 0.0137 µM, read-out: HCT 116 Cell viability (%)): 89.2%
- viability at 0.0412 µM (HCT 116; Homo sapiens, HCT-116, 96 h, 0.0412 µM, read-out: HCT 116 Cell viability (%)): 83.7%
- viability at 0.1235 µM (HCT 116; Homo sapiens, HCT-116, 96 h, 0.1235 µM, read-out: HCT 116 Cell viability (%)): 89%
- viability at 0.3704 µM (HCT 116; Homo sapiens, HCT-116, 96 h, 0.3704 µM, read-out: HCT 116 Cell viability (%)): 94.1%
- viability at 1.1111 µM (HCT 116; Homo sapiens, HCT-116, 96 h, 1.1111 µM): 90.8%
- viability at 3.3333 µM (HCT 116; Homo sapiens, HCT-116, 96 h, 3.3333 µM, read-out: HCT 116 Cell viability (%)): 74%
- viability at 10 µM (HCT 116; Homo sapiens, HCT-116, 96 h, 10.0000 µM): 45.5%
- Cell viability (%) (PDO11; PDO11, 0.5 µM, 4 d, 0.5 µM): 109.25% and 122.99% and 99.10%
- Cell viability (%) (PDO11; PDO11, 1 µM, 4 days, 1 µM): 102.62% and 119.73% and 93.65%
